Measurements from patent US7759302B2, “Peptidic sulfonamides” (Merck Patent GmbH, priority 2003, dated 2010).
pIC50: −log10 of the molar value.

Target: αvβ6 integrin (Homo sapiens, UniProt P06756+P18564)
Assay: Influence of soluble substances on the binding of biotinylated fibronectin to immobilised αvβ6 (ELISA-type competition binding test)
Conditions: competition with biotinylated fibronectin at immobilised αvβ6; standard employed in each experiment
Method: The prepared peptides according to the invention together with competing fibronectin were bound in solution to the immobilised αvβ6 receptor, and the Q value as a measure of the selectivity of the binding of the peptide to be tested to αvβ6 was determined. The Q value is calculated from the quotient of the IC50 values of test peptide and a standard. The standard used was the linear Ac-RTDLDSLR-NH2(SEQ ID NO: 22) (WO01/00660; Pytela et al., 1986, Science 231, 1559). The binding test was carried out in detail as follows:
αvβ6 was immobilised on microtitre plates by dilution of the protein solution in TBS++ and subsequent incubation overnight at 4° C. (100 μl/well). Non-specific binding sites were blocked by incubation (2 h; 37° C.) with 3% (w/v) BSA in TBS++ (200 μl/well). Excess BSA was removed by washing three times with TBSA++. […]
Unbound fibronectin and peptides were removed by washing three times with TBSA++. The bound fibronectin was detected by incubation (1 h; 37° C.) with an alkaline phosphatase-coupled antibiotin antibody (1:20000 in TBSA++; 100 μl/well). […] The colour intensity was determined at 405 nm in the ELISA measuring instrument and adjusted against a blank value. […]
IC50 values for the peptides tested were read off from a graph, and the Q value of the peptide was determined therefrom together with the IC50 of the standard.

## Ac-RTDLDSLR-NH2 [AC-RTDLDSLR-NH2, Ac-RTDLDSLR-NH2]
  pIC50: > 7.00
